Measured values from ChEMBL document CHEMBL5665443, “Enzyme Inhibitor Single Concentration assay results for EUbOPEN Chemogenomics Library” (2024).

Columns and labels:
[1] = biological target: T1, Adenine DNA glycosylase (Homo sapiens) (UniProt Q9UIF7); conditions: Hit No;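 further: human MUTYH activity read as 594 nm fluorescence from cleavage and release of a quenched DNA duplex, coupled with APE1 for strand incision, lower signal meaning inhibition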
T1 sequence (whole entry): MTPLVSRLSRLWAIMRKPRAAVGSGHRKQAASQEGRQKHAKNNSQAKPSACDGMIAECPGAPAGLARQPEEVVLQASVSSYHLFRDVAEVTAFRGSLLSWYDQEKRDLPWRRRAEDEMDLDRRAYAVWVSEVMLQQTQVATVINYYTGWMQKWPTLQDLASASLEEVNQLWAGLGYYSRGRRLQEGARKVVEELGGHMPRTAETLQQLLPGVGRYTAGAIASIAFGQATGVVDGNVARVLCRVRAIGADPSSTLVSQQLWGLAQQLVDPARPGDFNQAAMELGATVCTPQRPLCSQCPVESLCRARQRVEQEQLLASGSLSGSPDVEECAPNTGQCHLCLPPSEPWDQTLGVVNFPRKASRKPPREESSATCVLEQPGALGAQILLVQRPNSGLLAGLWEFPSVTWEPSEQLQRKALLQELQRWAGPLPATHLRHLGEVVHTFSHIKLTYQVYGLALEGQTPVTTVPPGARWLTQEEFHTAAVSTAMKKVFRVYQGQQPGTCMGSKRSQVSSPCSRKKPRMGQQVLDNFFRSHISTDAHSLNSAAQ
Description: Inhibition of MUTYH by quantifying inhibition of MUTYH-mediated cleavage and dissociation of quenched duplex DNA oligonucleotides, measured as fluorescence at 594 nm. To generate a functional strand incision and increase turn-over this assay is coupled to APE1.

[2] = biological target: G/T mismatch-specific thymine DNA glycosylase (Homo sapiens) (UniProt Q13569); conditions: Hit No;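 further: human TDG cleavage of quenched duplex DNA oligonucleotides coupled to APE1, strand release read as fluorescence at 594 nm, inhibition of TDG activity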
G/T mismatch-specific thymine DNA glycosylase (Homo sapiens), sequence (Q13569 whole entry): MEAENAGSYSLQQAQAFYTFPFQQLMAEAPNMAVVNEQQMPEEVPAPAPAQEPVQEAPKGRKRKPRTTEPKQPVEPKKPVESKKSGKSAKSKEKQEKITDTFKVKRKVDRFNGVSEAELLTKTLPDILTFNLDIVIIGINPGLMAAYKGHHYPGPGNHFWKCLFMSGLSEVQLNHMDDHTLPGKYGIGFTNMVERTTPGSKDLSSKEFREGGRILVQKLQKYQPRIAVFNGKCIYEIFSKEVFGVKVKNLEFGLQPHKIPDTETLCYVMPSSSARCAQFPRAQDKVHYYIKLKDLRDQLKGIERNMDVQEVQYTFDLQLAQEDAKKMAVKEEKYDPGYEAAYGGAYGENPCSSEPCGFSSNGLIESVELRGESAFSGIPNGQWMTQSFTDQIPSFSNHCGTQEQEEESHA
Description: Inhibition of TDG by quantifying inhibition of TDG-mediated cleavage and dissociation of quenched duplex DNA oligonucleotides, measured as fluorescence at 594 nm. To generate a functional strand incision and increase turn-over this assay is coupled to APE1.

[3] = biological target: T2, Single-strand selective monofunctional uracil DNA glycosylase (Homo sapiens) (UniProt Q53HV7); conditions: Hit No;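 further: enzymatic SMUG1 assay coupled with APE1, reading fluorescence at 594 nm released when a quenched double-stranded DNA oligonucleotide substrate is cleaved and separated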
T2 sequence (whole entry): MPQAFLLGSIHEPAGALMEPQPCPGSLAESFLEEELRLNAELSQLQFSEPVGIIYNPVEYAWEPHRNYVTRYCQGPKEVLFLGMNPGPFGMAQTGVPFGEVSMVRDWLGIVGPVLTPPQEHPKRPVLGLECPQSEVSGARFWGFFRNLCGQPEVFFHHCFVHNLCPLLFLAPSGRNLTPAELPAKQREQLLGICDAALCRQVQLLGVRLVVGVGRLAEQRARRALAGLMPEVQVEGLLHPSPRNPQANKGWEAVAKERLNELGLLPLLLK
Description: Inhibition of SMUG1 by quantifying inhibition of SMUG1-mediated cleavage and dissociation of quenched duplex DNA oligonucleotides, measured as fluorescence at 594 nm. To generate a functional strand incision and increase turn-over this assay is coupled to APE1.

[4] = biological target: T3, Endonuclease III-like protein 1 (Homo sapiens) (UniProt P78549); conditions: Hit No;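 further: enzyme assay tracking NTHL1 cutting and release of a quenched double-stranded DNA oligo substrate, read as fluorescence at 594 nm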
T3 sequence (whole entry): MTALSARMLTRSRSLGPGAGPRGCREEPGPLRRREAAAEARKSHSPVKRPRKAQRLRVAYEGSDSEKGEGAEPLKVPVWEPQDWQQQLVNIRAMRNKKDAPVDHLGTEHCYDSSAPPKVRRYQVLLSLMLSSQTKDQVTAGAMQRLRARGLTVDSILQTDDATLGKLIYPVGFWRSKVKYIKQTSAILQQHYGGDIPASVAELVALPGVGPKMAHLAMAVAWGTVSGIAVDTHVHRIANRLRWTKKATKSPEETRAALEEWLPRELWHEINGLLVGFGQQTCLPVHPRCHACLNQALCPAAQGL
Description: Inhibition of NTHL1 by quantifying inhibition of NTHL1-mediated cleavage and dissociation of quenched duplex DNA oligonucleotides, measured as fluorescence at 594 nm.

[5] = biological target: T4, Endonuclease 8-like 2 (Homo sapiens) (UniProt Q969S2);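 further: fluorescence at 594 nm reports NEIL2 cutting and release of a quenched double-stranded DNA oligo substrate, reduced signal read as inhibition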
T4 sequence (whole entry): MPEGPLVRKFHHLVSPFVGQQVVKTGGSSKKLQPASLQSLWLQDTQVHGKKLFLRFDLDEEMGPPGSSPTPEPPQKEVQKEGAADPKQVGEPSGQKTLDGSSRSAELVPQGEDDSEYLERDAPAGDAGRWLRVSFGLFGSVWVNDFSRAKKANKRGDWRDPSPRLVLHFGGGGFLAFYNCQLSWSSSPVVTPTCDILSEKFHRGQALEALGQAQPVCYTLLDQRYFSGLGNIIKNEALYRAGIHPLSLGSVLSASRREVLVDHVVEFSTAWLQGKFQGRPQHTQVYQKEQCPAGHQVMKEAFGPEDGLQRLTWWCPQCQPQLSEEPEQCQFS
Description: Inhibition of NEIL2 by quantifying inhibition of NEIL2-mediated cleavage and dissociation of quenched duplex DNA oligonucleotides, measured as fluorescence at 594 nm.

[6] = biological target: N-glycosylase/DNA lyase (Homo sapiens) (UniProt O15527);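 further: OGG1 cleavage of a quenched duplex DNA oligonucleotide, coupled to APE1 for strand incision, read as fluorescence at 594 nm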
N-glycosylase/DNA lyase (Homo sapiens), sequence (O15527 whole entry): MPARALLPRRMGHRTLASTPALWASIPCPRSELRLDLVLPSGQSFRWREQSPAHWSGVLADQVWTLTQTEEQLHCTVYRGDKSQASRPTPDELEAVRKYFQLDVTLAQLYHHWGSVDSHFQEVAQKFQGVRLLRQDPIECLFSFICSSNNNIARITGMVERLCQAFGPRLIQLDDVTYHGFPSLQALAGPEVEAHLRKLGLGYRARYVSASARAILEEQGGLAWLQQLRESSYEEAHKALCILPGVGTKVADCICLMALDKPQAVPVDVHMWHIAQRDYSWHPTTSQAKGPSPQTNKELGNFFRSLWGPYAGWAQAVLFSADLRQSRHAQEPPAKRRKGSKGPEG
Description: Inhibition of OGG1 by quantifying inhibition of OGG1-mediated cleavage and dissociation of quenched duplex DNA oligonucleotides, measured as fluorescence at 594 nm. To generate a functional strand incision and increase turn-over this assay is coupled to APE1.

[7] = biological target: Uracil-DNA glycosylase (Homo sapiens) (UniProt P13051); conditions: Hit No;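 further: UNG excision on a quenched double-stranded DNA oligo probe, with APE1 added for strand incision and turnover, read as fluorescence at 594 nm as strands separate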
Uracil-DNA glycosylase (Homo sapiens), sequence (P13051 whole entry): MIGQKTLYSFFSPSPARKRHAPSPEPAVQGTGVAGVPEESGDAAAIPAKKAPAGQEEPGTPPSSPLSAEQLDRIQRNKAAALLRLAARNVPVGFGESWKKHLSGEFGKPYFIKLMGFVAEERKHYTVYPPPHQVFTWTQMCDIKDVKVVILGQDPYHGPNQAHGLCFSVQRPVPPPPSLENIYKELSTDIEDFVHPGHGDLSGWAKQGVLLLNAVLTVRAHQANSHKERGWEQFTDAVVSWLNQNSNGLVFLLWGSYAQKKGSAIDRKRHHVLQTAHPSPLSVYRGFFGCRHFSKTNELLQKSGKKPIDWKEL
Description: Inhibition of UNG by quantifying inhibition of UNG-mediated cleavage and dissociation of quenched duplex DNA oligonucleotides, measured as fluorescence at 594 nm. To generate a functional strand incision and increase turn-over this assay is coupled to APE1.

[8] = biological target: Endonuclease 8-like 1 (Homo sapiens) (UniProt Q96FI4); conditions: Hit No;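 further: fluorescence at 594 nm from quenched duplex DNA oligonucleotides released by NEIL1 cleavage and strand separation, reported as reduction of this enzyme activity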
Endonuclease 8-like 1 (Homo sapiens), sequence (Q96FI4 whole entry, the tested form may be a part): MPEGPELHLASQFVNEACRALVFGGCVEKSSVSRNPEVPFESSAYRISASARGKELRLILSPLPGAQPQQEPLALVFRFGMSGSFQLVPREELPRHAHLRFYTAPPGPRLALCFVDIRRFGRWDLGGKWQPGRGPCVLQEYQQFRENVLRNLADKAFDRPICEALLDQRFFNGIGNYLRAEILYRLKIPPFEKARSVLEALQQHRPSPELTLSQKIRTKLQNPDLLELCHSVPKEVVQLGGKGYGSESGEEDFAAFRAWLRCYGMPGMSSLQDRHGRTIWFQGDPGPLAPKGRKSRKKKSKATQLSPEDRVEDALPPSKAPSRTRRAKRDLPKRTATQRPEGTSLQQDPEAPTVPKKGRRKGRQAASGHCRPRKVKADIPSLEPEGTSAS
Description: Inhibition of NEIL1 by quantifying inhibition of NEIL1-mediated cleavage and dissociation of quenched duplex DNA oligonucleotides, measured as fluorescence at 594 nm.

[9] = biological target: Methyl-CpG-binding domain protein 4 (Homo sapiens) (UniProt O95243); conditions: Compound Concentration 10.0 uM, Hit No;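 further: MBD4 activity read as fluorescence at 594 nm from cleavage and release of a quenched duplex DNA oligonucleotide, with APE1 coupled to incise the strand and raise turnover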
Methyl-CpG-binding domain protein 4 (Homo sapiens), sequence (O95243 whole entry, the tested form may be a part): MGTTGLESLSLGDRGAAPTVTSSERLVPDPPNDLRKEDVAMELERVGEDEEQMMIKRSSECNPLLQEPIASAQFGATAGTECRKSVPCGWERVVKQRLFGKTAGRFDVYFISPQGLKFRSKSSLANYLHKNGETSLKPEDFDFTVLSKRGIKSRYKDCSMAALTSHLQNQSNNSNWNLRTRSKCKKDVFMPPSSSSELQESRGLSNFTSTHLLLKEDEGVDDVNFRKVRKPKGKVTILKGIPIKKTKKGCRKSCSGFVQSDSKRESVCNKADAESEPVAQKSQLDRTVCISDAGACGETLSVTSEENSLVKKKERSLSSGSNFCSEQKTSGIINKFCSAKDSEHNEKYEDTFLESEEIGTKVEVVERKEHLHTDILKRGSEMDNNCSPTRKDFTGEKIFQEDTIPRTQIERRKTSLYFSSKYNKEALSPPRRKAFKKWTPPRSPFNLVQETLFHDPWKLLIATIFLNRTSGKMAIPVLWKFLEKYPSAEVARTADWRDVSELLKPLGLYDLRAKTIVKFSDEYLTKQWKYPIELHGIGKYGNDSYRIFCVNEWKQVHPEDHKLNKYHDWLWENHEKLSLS
Description: Inhibition of MBD4 by quantifying inhibition of MBD4-mediated cleavage and dissociation of quenched duplex DNA oligonucleotides, measured as fluorescence at 594 nm. To generate a functional strand incision and increase turn-over this assay is coupled to APE1.

[10] = Compound Concentration 10.0 uM, Hit No
[11] = Compound Concentration 1.0 uM, Hit No
[12] = Compound Concentration 10.0 uM, Hit Yes

| Compound | inhibition ([1]; Compound Concentration 10.0 uM) | inhibition ([2]; Compound Concentration 10.0 uM) | inhibition ([3]; Compound Concentration 10.0 uM) | inhibition ([4]; Compound Concentration 10.0 uM) | inhibition [5, 10] | inhibition [6, 10] | inhibition ([7]; Compound Concentration 10.0 uM) | inhibition ([8]; Compound Concentration 10.0 uM) | inhibition [9] | inhibition ([1]; Compound Concentration 1.0 uM) | inhibition ([2]; Compound Concentration 1.0 uM) | inhibition ([3]; Compound Concentration 1.0 uM) | inhibition ([4]; Compound Concentration 1.0 uM) | inhibition [5, 11] | inhibition ([7]; Compound Concentration 1.0 uM) | inhibition ([8]; Compound Concentration 1.0 uM) | inhibition [6, 12] | inhibition [6, 11] | inhibition [5, 12] |
| --- | --- | --- | --- | --- | --- | --- | --- | --- | --- | --- | --- | --- | --- | --- | --- | --- | --- | --- | --- |
| CS(=O)(=O)NC[C@H]1CC[C@H](Nc2nc3c(s2)CCSc2ccccc2-3)CC1 | -5.74% | 2.85% | -4.83% | 34.9% | 8.25% | -8.83% | -8.36% | -5.25% | – | – | – | – | – | – | – | – | – | – | – |
| N[C@@H](Cc1cc(I)c(Oc2ccc(O)c(I)c2)c(I)c1)C(=O)O | 10.3% | 102% | – | -3.92% | – | 4.51% | 5.16% | -7.26% | 68.9% | – | – | – | – | – | – | – | – | – | – |
| Cc1cccc([C@H](C)c2c[nH]cn2)c1C | 5.65% | 18.4% | -5.51% | -4.67% | 7.25% | -7.75% | – | -5.1% | – | – | – | – | – | – | – | – | – | – | – |
| CN1CCN(c2cc(-c3ccccc3)nc(N)n2)CC1 | -4.71% | 1.13% | – | 9.99% | 7% | – | -9.1% | -2.28% | -3.57% | – | – | – | – | – | – | – | – | – | – |
| CCCCC(=O)N(Cc1ccc(-c2ccccc2-c2nnn[nH]2)cc1)[C@H](C(=O)O)C(C)C | 34.3% | 0.584% | – | 1.92% | 1.76% | -4.35% | – | 0.537% | -9.61% | – | – | – | – | – | – | – | – | – | – |
| H-LVVYPWT-OH | 8.4% | 8.08% | – | 14.6% | 2.2% | -2.03% | -2.47% | 7.27% | 9.67% | – | – | – | – | – | – | – | – | – | – |
| N[C@@H]1c2cccnc2[C@H](OC(=O)N2CCC(n3c(=O)[nH]c4ncccc43)CC2)CC[C@H]1c1cccc(F)c1F | -2.28% | 6.23% | -4.73% | -6.14% | 0.515% | -5.76% | – | -2.58% | – | – | – | – | – | – | – | – | – | – | – |
| Cc1nc(C#Cc2ccnc(Cl)c2)c(C)n1-c1ccc(OC(F)(F)F)cc1 | 14% | 20.9% | 5% | 7.05% | 5.26% | -0.162% | -8.09% | -9.4% | – | – | – | – | – | – | – | – | – | – | – |
| Cn1cc(-c2[nH]c3cc(NC(=O)[C@H](N)C4CCCCC4)cc4c3c2C=NNC4=O)cn1 | – | – | – | – | – | – | – | – | – | -0.0556% | 43.2% | 19.2% | -0.61% | -5.15% | 0.598% | -1.18% | – | – | – |
| N#Cc1c(N)nc(SCc2csc(-c3ccc(Cl)cc3)n2)c(C#N)c1-c1ccc(OCCO)cc1 | 7.45% | 6.03% | – | 4.7% | – | – | -1.02% | – | -6.16% | – | – | – | – | – | – | – | 55.1% | – | – |
| CNc1nc(Nc2cnn([C@H]3CCN(C4COC4)C[C@@H]3F)c2Cl)ncc1C(F)(F)F | – | – | – | – | – | – | – | – | – | -1.03% | 39.4% | 15% | -6.19% | – | 2.4% | -2.24% | – | -2.93% | – |
| CC(C)(C)c1ccc2c(c1)CC[C@H]2NC(=O)Nc1cccc2[nH]ncc12 | -7.76% | -8.31% | 11.7% | 3.04% | -4.17% | -2.36% | -4.28% | 7.86% | – | – | – | – | – | – | – | – | – | – | – |
| CC(C)NCC(O)COc1cccc2ccccc12 (stereo not drawn) | 3.6% | 5.22% | 3.41% | 13.7% | – | – | -6.12% | -0.797% | – | – | – | – | – | – | – | – | – | – | 35% |
| OCCn1cc(-c2cnc3nnn(Cc4ccc5ncccc5c4)c3n2)cn1 | 0.369% | 49.5% | 18.6% | -9.68% | -5.15% | -5.86% | -1.44% | 2.52% | – | – | – | – | – | – | – | – | – | – | – |
| CSCC[C@H](NC(=O)[C@H](Cc1ccccc1)NC(=O)[C@H](Cc1c[nH]cn1)NC(=O)CNC(=O)[C@@H](NC(=O)[C@H](C)NC(=O)[C@H](Cc1c[nH]c2ccccc12)NC(=O)[C@H](CC(C)C)NC(=O)[C@H](CC(N)=O)NC(=O)CN)[C@@H](C)O)C(N)=O | 11.4% | -7.68% | – | 8.82% | -6.21% | – | -8.29% | 10.5% | -1.83% | – | – | – | – | – | – | – | – | – | – |
| O=C(O)c1cc(-c2ccc(C3CCNCC3)cc2)c2ccc(-c3ccc(C(F)(F)F)cc3)cc2c1 | 10.9% | 20.1% | -1.19% | 2.15% | 1.86% | -4.86% | 0.968% | -1.45% | – | – | – | – | – | – | – | – | – | – | – |
| Clc1ccc(OC[C@H]2CCN2)cn1 | -6.13% | – | – | 5.52% | -6.72% | -5.75% | -3.96% | -0.584% | -2.21% | – | – | – | – | – | – | – | – | – | – |
| c1ccc(N2CCN(Cc3nc4ccccc4[nH]3)CC2)nc1 | 2.22% | 29.5% | – | 0.934% | – | -5.49% | -4.15% | – | 29.2% | – | – | – | – | – | – | – | – | – | – |
| CC#CC(=O)N1CCC[C@H]1c1nc(-c2ccc(C(=O)Nc3ccccn3)cc2)c2c(N)nccn12 | 0.794% | 55.9% | – | -7.58% | – | 1.98% | 4.65% | – | -0.914% | – | – | – | – | – | – | – | – | – | – |
| COc1ccc(CN(CCN(C)C)c2ccccn2)cc1 | 4.88% | 2.93% | – | 21.7% | -3.23% | -6.42% | – | 2.61% | -9.78% | – | – | – | – | – | – | – | – | – | – |
